Laboratory results: patent US20190389963A1, “COMBINATION THERAPY BY USING ANTI-GLOBO H OR ANTI-SSEA-4 ANTIBODY WITH ANTI-NEGATIVE IMMUNE CHECK POINTS ANTIBODY” (OBI Pharma, Inc., priority 2018, published 2019)

What was measured:
[1] = test system: GHCer and PD-1/PD-L1 engagement inhibited TCR signaling (PD-1 Effector Cells, PD-L1+ target cells); experiment: PD-1/PD-L1 Blockade Bioassay, GHCer pre-incubated with OBI-888, combined with Keytruda or Tecentriq; format: cell-based; conditions: 10 μM OBI-888 with GHCer 4 hours; 2 μM Keytruda or 2 μM Tecentriq, 6 hours; FIG. 10 as printed
Description: (§1) GHCer were incubated with 10 μM OBI-888 in assay medium containing 99% RPMI 1640/1% FBS (PD-1/PD-L1 Blockade Bioassay Kit, Promega, Cat# J3011) at 37° C. for 4 hours. Samples were centrifuged at 8000×g for 5 minutes twice and supernatant were harvested and incubated with PD-1 Effector Cells for 24 hours. PD-L1+ target cells were seeded in 96 well plate and incubate for 24 hours at 37° C. with 5% CO2. The growth medium from the plates coated PD- L1 cells was replaced by the GHCer/Effector cells R×n with 2 μM Keytruda or 2 μM Tecentriq and incubate for 6 hours at 37° C. with 5% CO2. Plate was removed to ambient temperature for 10 mins. Bio-Glo™ Reagent was added and incubate for 15 mins then read by luminometer.

[2] = test system: PD-1/PD-L1 engagement inhibited TCR signaling (PD-1 Effector Cells, PD-L1+ target cells); experiment: PD-1/PD-L1 Blockade Bioassay, SSEA4Cer treated effector cells with Keytruda or Tecentriq; format: cell-based; conditions: 6 hours, FIG. 8; for Release of PD-1/PD-L1 engagement inhibited TCR signaling by checkpoint antibody: 2 μM antibody, effector cells with 40 μM SSEA4Cer
Description: (§2) 40 μM SSEA4Cer was incubated with PD-1 Effector Cells (PD-1/PD-L1 Blockade Bioassay Kit, Promega, Cat# J3011), then incubate for 24 hours at 37° C. with 5% CO2. PD-L1+ target cells were seeded in 96 well plate and incubate for 24 hours at 37° C. with 5% CO2. The growth medium from the plates coated PD-L+ cells was replaced by the SSEA4Cer/Effector cells R×n with 2 μM Keytruda, the Anti-PD-1 mAb, or 2 μM Tecentriq, the Anti-PD-L1 mAb, and incubate for 6 hours at 37° C. with 5% CO2. Plate was removed to ambient temperature for 10 mins. Bio-Glo™ Reagent was added and incubate for 15 mins then read by luminometer.

[3] = test system: PD-1/PD-L1 engagement inhibited TCR signaling (PD-1 Effector Cells, PD-L1+ target cells); experiment: PD-1/PD-L1 Blockade Bioassay, GHCer treated effector cells with Keytruda or Tecentriq; format: cell-based; conditions: 6 hours, FIG. 7; for Release of PD-1/PD-L1 engagement inhibited TCR signaling by checkpoint antibody: 2 μM antibody, effector cells with 40 μM GHCer
Description: as §2, with “40 μM GHCer was incubated” for “40 μM SSEA4Cer was incubated”, “by the GHCer/Effector cells R×n” for “by the SSEA4Cer/Effector cells R×n”, “or 2 lμM Tecentriq, the” for “or 2 μM Tecentriq, the”

[4] = test system: SSEA4Cer and PD-1/PD-L1 engagement inhibited TCR signaling (PD-1 Effector Cells, PD-L1+ target cells); experiment: PD-1/PD-L1 Blockade Bioassay, SSEA4Cer pre-incubated with OBI-898, combined with Keytruda or Tecentriq; format: cell-based; conditions: 5 μM OBI-898 with SSEA4Cer 4 hours; 2 μM Keytruda or 2 μM Tecentriq, 6 hours; FIG. 11 as printed
Description: as §1, with “SSEA4Cer were” for “GHCer were”, “with 5” for “with 10”, “μM OBI-898” for “μM OBI-888”, “medium” for “medium containing 99% RPMI 1640/1% FBS (PD-1/PD-L1 Blockade Bioassay Kit, Promega, Cat# J3011)”, “hours. PD-L+” for “hours. PD-L1+”, “the SSEA4Cer/Effector” for “the GHCer/Effector”

[5] = test system: PD-1 Effector Cells with PD-L1+ target cells (TCR signaling); experiment: PD-1/PD-L1 Blockade Bioassay with GHCer or SSEA4Cer treated PD-1 Effector Cells; format: cell-based; conditions: various concentration of ceramide on PD-1 Effector Cells 24 hours, 6 hours with PD-L1+ cells; FIG. 6 as printed
Description: Various concentration of GHCer or SSEA4Cer was incubated with PD-1 Effector Cells (PD-1/PD-L1 Blockade Bioassay Kit, Promega, Cat# J3011), then incubate for 24 hours at 37° C. PD-L+ target cells (PD-1/PD-L1 Blockade Bioassay Kit, Promega, Cat# J3011) were seeded in 96 well plate and incubate for 24 hours at 37° C. with 5% CO2. The growth medium from the plate coated PD- L1+ cells was replaced by the GHCer or SSEA4Cer/Effector cells R×n and incubated for 6 hours. Plate was removed to ambient temperature for 10 mins. Bio-Glo™ Reagent was added and incubate for 15 mins then read by luminometer.

[6] = test system: Jurkat/NFAT-Re Luc cells; experiment: Jurkat/NFAT-Re Luc T cell activation by Anti-CD3/CD28, luciferase reporter, after pre-incubation with Globo series ceramides; format: cell-based, human; conditions: various concentrations of ceramide, pre-incubated 18-24 hours; 6 hours activation; FIG. 2
Description: Jurkat/NFAT-Re Luc cells (Promega, Inc., Cat# G7102) were pre-incubated with or without various concentrations of chemically synthesized Globo H ceramide (GHCer) or SSEA-4 ceramide (SSEA4Cer) for 18-24 hours in 48-well culture plate. Cells were collected and transferred to white, flat-bottom 96-well assay plates (Greiner Bio-One GmbH, Cat#655073) coated overnight with Anti-human CD3 (100 ng/well) (BioLegend, Inc. Cat#317326), and Anti-human CD28 (300 ng/well) (BioLegend, Inc. Cat#302914) in 37° C. incubator for a 6 hours activation. Assay plates were removed from the incubator and equilibrated to room temperature (22-25° C.) for 15 minutes. 75 μL of Bio-Glo™ Luciferase Assay Reagent (Promega, Inc. Cat#G7940) was added and incubated the plates at RT for 15 minutes. Luminescence was measured using a microplate reader SpectraMax L (Molecular Devices, LLC.). The Photomultiplier Tube (PMT) sensitivity was set as autorange and calibrated at 570 nm. Fold of induction was calculated by RLUactivated/RLUunstimulated.

## Keytruda: the Anti-PD-1 mAb; MSD Ireland, Lot 7302614A13
[1]
  Rescue of GHCer and PD-1/PD-L1 engagement inhibited TCR signaling by combination: acts synergistically with Keytruda
[2]
  Release of PD-1/PD-L1 engagement inhibited TCR signaling by checkpoint antibody: released PD-1/PD-L1 engagement inhibited TCR signaling
[3]
  Release of PD-1/PD-L1 engagement inhibited TCR signaling by checkpoint antibody: released PD-1/PD-L1 engagement inhibited TCR signaling
[4]
  Rescue of SSEA4Cer and PD-1/PD-L1 engagement inhibited TCR signaling by combination: acts synergistically with Keytruda

## Globo H ceramide [GHCer]
[3]; 40 μM GHCer on effector cells 24 hours, 2 μM Keytruda or 2 lμM Tecentriq
  Effect of GHCer incorporation on Keytruda or Tecentriq released TCR signaling: reduced Keytruda or Tecentriq released PD-1/PD-L1 engagement inhibited TCR signaling
[5]
  Suppression of TCR activation signaling pathway together with PD-1/PD-L1 engagement: acts synergistically with PD-1/PD-L1 engagement to suppress the TCR activation signaling pathway
[6]
  Jurkat T cell activation to Anti-CD3/28 stimulation (fold of induction, RLUactivated/RLUunstimulated): suppress the Jurkat T cell activation to Anti-CD3/28 stimulation in a dose dependent manner

## SSEA-4 ceramide [SSEA4Cer]
[2]; 40 μM SSEA4Cer on effector cells 24 hours, 2 μM Keytruda or 2 μM Tecentriq
  Effect of SSEA4Cer incorporation on Keytruda or Tecentriq released TCR signaling: reduced Keytruda or Tecentriq released PD-1/PD-L1 engagement inhibited TCR signaling
[5]
  Suppression of TCR activation signaling pathway together with PD-1/PD-L1 engagement: acts synergistically with PD-1/PD-L1 engagement to suppress the TCR activation signaling pathway
[6]
  Jurkat T cell activation to Anti-CD3/28 stimulation (fold of induction, RLUactivated/RLUunstimulated): suppress the Jurkat T cell activation to Anti-CD3/28 stimulation in a dose dependent manner

## Tecentriq: the Anti-PD-L1 mAb; Roche, Lot H0125B11
[1]
  Rescue of GHCer and PD-1/PD-L1 engagement inhibited TCR signaling by combination: synergistically with Keytruda or Tecentriq
[2]
  Release of PD-1/PD-L1 engagement inhibited TCR signaling by checkpoint antibody: released PD-1/PD-L1 engagement inhibited TCR signaling
[3]
  Release of PD-1/PD-L1 engagement inhibited TCR signaling by checkpoint antibody: released PD-1/PD-L1 engagement inhibited TCR signaling
[4]
  Rescue of SSEA4Cer and PD-1/PD-L1 engagement inhibited TCR signaling by combination: synergistically with Keytruda or Tecentriq
